According to patent US4681699A, “Bisazo dyes and their use in liquid crystalline materials” (BASF Aktiengesellschaft, priority 1984, dated 1987):

Legend:
[1] = Solubility L of dye in liquid crystal mixture at room temperature (saturated solution, comparison of extinctions); assay type: physicochemical
Procedure: (§1) The degree of order S measured at room temperature, the solubility L likewise determined at room temperature, and the Merck liquid crystal mixtures used are summarized in Table 1 for Examples 1, 4, 5, 8, 12, 15 and 18.
(§2) The values for the degree of order and the solubility which have been measured at room temperature in ZLI 2452 are summarized in Table 2 for some of the Examples 19-46.
The solubility was determined as described below. 50 mg of the particular dye was stirred for 1 week at room temperature in 1 ml of liquid crystal, the saturated solution was centrifuged off from the residue, and the solubility was determined by comparison of extinctions.

[2] = Degree of order S of dye in nematic liquid crystal mixture (dichroic ratio CR, homogeneously oriented measuring cell); assay type: physicochemical
Procedure: as §1, §2
The degree of order S was determined on the basis of the known equation [formula] in a commercial measuring cell with a homogeneous orientation (polyimide).The dichroic ratio CR was determined by measuring the extinctions E^.parallel. (measured with light polarized parallel to the preferred direction of the nematic phase) and E^.perp. (measured with light polarized perpendicular to the preferred direction of the nematic phase) and using the relationship CR=E^.parallel. /E^.perp., the dye concentrations being chosen so that E^.parallel. was from 1 to 2. The measurements were carried out using an Acta CIII spectrophotometer from Beckmann.

[3] = liquid crystal mixture ZLI 1957/5
[4] = liquid crystal mixture ZLI 1840
[5] = liquid crystal mixture ZLI 2452 (Table 1)
[6] = liquid crystal mixture ZLI 2585

Row | Structure (SMILES) | Solubility L (at room temperature) ([1]; ZLI 2452 (Table 2)) [%] | Degree of order S (at room temperature) ([2]; ZLI 2452 (Table 2)) | further results
1 | CCCCCCCCCCCCN(C)c1ccc(N=Nc2cc(C)c(N=Nc3nc(CCCCCCC)ns3)cc2C)c2ccccc12 [Example 22] | 1.7 | 0.77 | 
2 | CCCCCCCCSc1nsc(N=Nc2ccc(N=Nc3ccc(NCc4ccc(C5CCC(CCCC)CC5)cc4)c4ccccc34)cc2)n1 (stereo not drawn) [Example 18] |  |  | Solubility L (at room temperature) [1, 3]: 0.9%; Degree of order S (at room temperature) [2, 3]: 0.79
3 | CCCCCCCCNc1ccc(N=Nc2cc(C)c(N=Nc3nc(SCCCCCCCC)ns3)cc2C)c2ccc(C)nc12 [Example 19] | 0.6 | 0.75 | 
4 | CCCCCCCCSc1nsc(N=Nc2ccc(N=Nc3ccc(N(C)CCCC)cc3)cc2)n1 [Example 1] |  |  | Solubility L (at room temperature) [1, 3]: 1.5%; Degree of order S (at room temperature) [2, 3]: 0.72
5 | CCNc1ccc(N=Nc2cc(C)c(N=Nc3nc(SC)ns3)cc2C)c2ccccc12 [Example 12] |  |  | Solubility L (at room temperature) [1, 4]: 0.7%; Degree of order S (at room temperature) [2, 4]: 0.72
6 | CCCCCCCCSc1nsc(N=Nc2cc(C)c(N=Nc3ccc(N(C)C)cc3C)cc2C)n1 [Example 8] |  |  | Solubility L (at room temperature) [1, 3]: 1.5%; Degree of order S (at room temperature) [2, 3]: 0.73; Degree of order S (at room temperature) [2, 5]: 0.76
7 | CCCCCCCCSc1nsc(N=Nc2cc(C)c(N=Nc3ccc(NCc4ccc(C5CCC(CCCC)CC5)cc4)c4ccccc34)cc2C)n1 (stereo not drawn) [Example 15] |  |  | Solubility L (at room temperature) [1, 3]: 1.4%; Solubility L (at room temperature) [1, 5]: 2.8%; Solubility L (at room temperature) [1, 6]: 2.8%; Degree of order S (at room temperature) [2, 3]: 0.77; Degree of order S (at room temperature) [2, 5]: 0.81; Degree of order S (at room temperature) [2, 6]: 0.74
8 | Cc1cc(N=Nc2ccc(N(C)C)cc2C)c(C)cc1N=Nc1nc(SCc2ccccc2)ns1 [Example 5] |  |  | Solubility L (at room temperature) [1, 4]: 0.3%; Degree of order S (at room temperature) [2, 4]: 0.74
9 | CCCCSc1nsc(N=Nc2cc(C)c(N=Nc3ccc(N(C)C)cc3C)cc2C)n1 [Example 4] |  |  | Solubility L (at room temperature) [1, 4]: 0.9%; Degree of order S (at room temperature) [2, 4]: 0.73

More lines, main results first:

Row | Solubility L (at room temperature) ([1]; ZLI 2452 (Table 2)) [%] | Degree of order S (at room temperature) ([2]; ZLI 2452 (Table 2)) | Structure (SMILES) | further results
10 | 0.4 | 0.80 | CCCCCCCCSc1nsc(N=Nc2cc(C)c(N=Nc3ccc(NCc4ccc(CCCCC)cc4)c4ccccc34)cc2C)n1 [Example 42] | 
11 | 2.4 | 0.81 | CCCCC1CCC(c2ccc(CNc3ccc(N=Nc4ccc(N=Nc5nc(SCC(CC)CCCC)ns5)c(C)c4)c4ccccc34)cc2)CC1 (stereo not drawn) [Example 45] | 
12 | 1.3 | 0.76 | CCCCCCCCCCCCNc1ccc(N=Nc2cc(C)c(N=Nc3nc(SC)ns3)cc2C)c2ccccc12 [Example 26] | 
13 | 0.8 | 0.77 | CCCCCCCCNc1ccc(N=Nc2cc(C)c(N=Nc3nc(SCCCCCCCC)ns3)cc2C)c2ccccc12 [Example 36] | 
14 | 1.2 | 0.77 | CCCCCCCCCCCCNc1ccc(N=Nc2cc(C)c(N=Nc3nc(SCCCCCCCCCCCC)ns3)cc2C)c2ccccc12 [Example 40] | 
15 | 0.6 | 0.79 | CCCCCCCCCCCCNc1ccc(N=Nc2cc(C)c(N=Nc3nc(SCCCCCCC)ns3)cc2C)c2ccccc12 [Example 35] | 
16 | > 5 | 0.74 | CCCCC(CC)CSc1nsc(N=Nc2cc(C)c(N=Nc3ccc(NCC)c4ccccc34)cc2C)n1 (stereo not drawn) [Example 38] | 
17 | 0.6 | 0.74 | CCCCCCCCSc1nsc(N=Nc2cc(C)c(N=Nc3ccc(NCCc4ccccc4)c4ccccc34)cc2C)n1 [Example 41] | 
18 | 2.6 | 0.81 | CCCCC1CCC(c2ccc(CNc3ccc(N=Nc4ccc(N=Nc5nc(SCC(CC)CCCC)ns5)cc4)c4ccccc34)cc2)CC1 (stereo not drawn) [Example 44] | 
19 | 3.2 | 0.71 | CCCCCCCCSc1nsc(N=Nc2cc(C)c(N=Nc3ccc(Nc4ccc(CCCC)cc4)c4ccccc34)cc2C)n1 [Example 43] | 
20 | 0.8 | 0.80 | CCCCC1CCC(c2ccc(CNc3ccc(N=Nc4cc(C)c(N=Nc5nc(SCC(CC)CCCC)ns5)cc4C)c4ccccc34)cc2)CC1 (stereo not drawn) [Example 46] | 
